Experiments:
[1] = test system: CUMS animal model of depression; assay: CUMS depression model behavioral tests; type: in vivo, C57BL/6J mice; conditions: Fluoxetine 30 mg/kg
Text: Depression, also known as depressive disorder, is characterized by significant and long-lasting depressed state of mind as the main clinical feature. The CUMS animal model of depression is a chronic unpredictable animal stress model, which simulates part of the stressor, the external material environmental stimulus, and will cause dysfunctions in the animal organism through different stress stimuli, leading to occurrence of the psychiatric disease depression. […] During this period, carefully observing the status of each mouse. • (6) Basket shaking: Placing the mice in an empty basket and shaking the basket drastically, with the criterion that the mice in the basket are unable to stand firm and sway with the shaking of the basket, for 1 hour. • (7) Olfactory stimulation: Placing anise and other spices in the mice's baskets as a means of olfactory stimulation.
The above seven experiments were conducted randomly during a week as a way to achieve unpredictability with 4 weeks of continuous stimulation.
At the end of the modeling, an open field test experiment was conducted to screen the modeled animals and group the successful modeled animals into five groups: normal group (Control), model control group (Model), positive drug treatment group (Fluoxetine), TJ0113 10 mg/kg treatment group (10 mg/kg), […], TJ0113 30 mg/kg treatment group (30 mg/kg). There were 10 mice in each group, and the administration treatment was administered by gavage, the normal and model control groups were given vehicle treatment, the vehicle was 0.5% CMC-Na, the positive drug fluoxetine hydrochloride was solubilized in saline and administered at a dose of 30 mg/kg, and the TJ0113 vehicle was 0.5% CMC-Na, and administered at a dose of 10 mg/kg and 30 mg/kg, respectively. 4 weeks after the end of the administration, behavioral tests were performed.
• (1) Adaptive feeding: Adaptive feeding with 1% sucrose water and plain water for 2 d before the start of the test, at 1 d, interchanging the sugar water and plain water to avoid positional differences for the animals, and fasting food and water for 1 d after adaption; • (2) Formal test: after fasting food and water, 1% sucrose water and plain water were given to the animals (the initial mass of sugar water and plain water is known), and weighing the remaining mass of sugar water/plain water of each animal after 24 h, and calculating the consumption rates of sugar water A and plain water B; • (3) Data analysis: sugar water preference rate=(A/A+B)×100%.
• (1) adapting to the environment: placing the animals in the test environment for 60 min to adapt to the environment before the test; • (2) Formal test: fixing the rear 1/3 of the mouse tail with tape and suspending on the stand of the experimental apparatus, with the head 15 cm from the bottom; • (3) starting timing camera, and stopping after 6 min, and recording the immobility time of the mice within 4 min; • (4) At the end of the test, using 75% alcohol to wipe the bottom and inner wall of the chamber.
• (1) adapting to the environment: placing the animals in the test environment for 60 min to adapt to the environment before the test; • (2) Formal test: placing the animals to be tested in the middle of the open field, and using the ANY-Maze software to collect the data, the test time is 10 min, and the feces and urine must be removed at the end of each round and disinfected and wiped dry with 75% alcohol; • (3) Analysis of results: total moved distance and average speed during the activity, time spent in the center area and time spent in the corner area.

[2] = test system: APP/PS1 mice; assay: Cognitive dysfunction in APP/PS1 mice; type: in vivo
Protocol: Male transgenic APP/PS1 mice were purchased from the Model Animal Research Center of Nanjing University, and after being raised to 12 weeks old, the APP/PS1 mice were divided into three groups: normal C57 group (WT), model control group (APP/PS1+Vehicle), and TJ01-013 treatment group (APP/PST+TJ01-013). The mode of administration was by oral gavage, normal group and model control group were administered vehicle by oral gavage, the concentration of TJ01-013 was 30 mg/kg, the gavage volume was 5 ml/kg, the frequency of administration was once a day, and the administration period was 3 months. • (2) Water maze experiment
The water maze device is a circular pool (140 cm in diameter) filled with dissolved titanium dioxide water, keeping the water temperature at 22° C. A platform with a diameter of 12 cm was placed at a fixed position 1 cm below the water surface, and the mice were trained in four quadrants every day for five consecutive days. Each quadrant lasted 60 seconds or until the mice found the platform. […] All parameters were recorded by a video tracking system.
Mouse heart perfusion for brain extraction: APP/PS1 mice and control C57BL/6J mice were anesthetized, and after they became unconscious, the limbs were fixed on a dissection table in a fuming hood, and the abdominal skin was cut with scissors after alcohol disinfection to expose the liver. The diaphragm was quickly cut, and the heart was exposed by turning upward after clamping the xiphoid with hemostatic forceps. Prepared PBS was injected into the left ventricle, noting that the direction was toward the aorta. The peristaltic pump was turned on after opening the right auricle and the blood was drained at a low rate at first. When the heart stopped beating or the fluid pumped at the right auricle was clarified and colorless, the mouse liver can be seen to turn grayish white. The fur was cut open along the midline of the mouse hindbrain with scissors, and the skull was exposed, then forceps were inserted from the criss-cross of the mouse's brain shell, and scissors were used to assist in peeling off the skull, and then the intact whole brain was removed. The fresh mouse whole brain was halved and placed in a 5 mL centrifuge tube, and 4 mL of 4% paraformaldehyde fixative was added to fix for 24 h, sections were made for antigenic repair, incubated for 30 min with dropwise adding of BSA at a concentration of 3-5%, and stained overnight with polyclonal rabbit anti-GFAP antibody (1:100) and mouse anti-β-amyloid protein 1-16 antibody (1:100), and after the sections were washed in PBS three times, the corresponding fluorescent secondary antibody was added dropwise to cover the tissue, and the sections were incubated in dark for 1 h, the slides were washed and stained with DAPI staining solution added dropwisely for 10 min, and the sections were sealed with resin sealer, and finally imaged with Cytation3.
Mouse brain tissue homogenates were prepared according to the brain tissue homogenization method described in the Life Technologies ELISA Technical Guide. […]

## O=C(O)C[S+]([O-])c1cc(NS(=O)(=O)c2ccc(Br)cc2)c2ccccc2c1O (stereo not shown) [I-1]
[1]; TJ0113 10 mg/kg and 30 mg/kg, FIG. 61
  average movement speed, open field: significantly increased
[1]; TJ0113 30 mg/kg, gavage, FIG. 57
  sugar water preference: significantly increased
[1]; TJ0113 30 mg/kg, FIG. 58
  time in despair (immobility), tail-hanging experiment: significantly decreased
[1]; TJ0113 30 mg/kg, FIG. 59
  distance moved, open field: significantly increased
[1]; TJ0113 30 mg/kg, FIG. 60
  time in the edge area of the open field: significantly decreased
[2]; 30 mg/kg oral gavage, 3 months, FIG. 42
  time to find the platform (water maze): significantly reduced
[2]; FIG. 44
  astrocyte activation in the hippocampal region (GFAP): significantly reduced
  number and size of Aβ plaques: significant decrease
[2]; FIG. 45
  amount of Aβ in the brain tissues (Elisa): significantly decreased
[2]; vs APP/PS1 Vehicle group, FIG. 43
  number of crossing over the platform (water maze): significantly larger
